The numbers were not newly measured in patent US12171169B2, “Pest repelling drip irrigation pipe” (RIVULIS PLASTRO LTD., priority 2017, dated 2024), which cites them from elsewhere.

For data set [1], the system named is pests. The conditions noted are these: 1R-cis versus 1S-cis enantiomer.
Data set [2] relates to humans. The conditions noted are these: 1S-cis versus 1R-cis enantiomer.

As to `Cc1c(COC(=O)[C@@H]2[C@H](/C=C(\Cl)C(F)(F)F)C2(C)C)cccc1-c1ccccc1` [1R-cis-bifenthrin, (2-methyl-[1,1′-biphenyl]-3-yl)methyl (1R,3R)-3-((Z)-2-chloro-3,3,3-trifluoroprop-1-en-1-yl)-2,2-dimethylcyclopropane-1-carboxylate], in data set [1], the “effectiveness as a pesticide relative to 1S-cis-bifenthrin” value is “more than 300 times”.
Consider `Cc1c(COC(=O)[C@H]2[C@@H](/C=C(\Cl)C(F)(F)F)C2(C)C)cccc1-c1ccccc1` [1S-cis-Bifenthrin, (2-methyl-[1,1′-biphenyl]-3-yl)methyl (1S,3S)-3-((Z)-2-chloro-3,3,3-trifluoroprop-1-en-1-yl)-2,2-dimethylcyclopropane-1-carboxylate], for which, in data set [2], the “toxicity to humans relative to 1R-cis-bifenthrin” value was 3-4 times.
